Assay results published in US20250041429A1, “COMPOUND HAVING BTK PROTEIN DEGRADATION ACTIVITY, AND MEDICAL USES THEREOF” (UBIX THERAPEUTICS, INC., priority 2021, published 2025).

Molecular target: T1, BTK protein (Homo sapiens, UniProt Q06187)
T1 construct: endogenous in cells; host or cells: TMD-8 cells
Test: Measurement of BTK protein degradation ability in TMD-8 cells (Western blotting)
Assay type: cell-based
Settings: harvested after 24 hours; for BTK degradation (%) 1 nM: compound 1 nM; for BTK degradation (%) 10 nM: compound 10 nM; for BTK degradation (%) 100 nM: compound 100 nM
Procedure, shortened: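 TMD-8 cells (1×10^6/mL) were treated for 24 h with compound at 0.1, 1, 10 μM or 0.0001–0.1 μM, with DMSO as vehicle control. RIPA lysates were normalized by BCA assay. BTK was detected by Western blot with anti-BTK, using GAPDH or β-actin as loading controls, and imaged on LI-COR Odyssey.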

T1 sequence (Q06187 whole entry): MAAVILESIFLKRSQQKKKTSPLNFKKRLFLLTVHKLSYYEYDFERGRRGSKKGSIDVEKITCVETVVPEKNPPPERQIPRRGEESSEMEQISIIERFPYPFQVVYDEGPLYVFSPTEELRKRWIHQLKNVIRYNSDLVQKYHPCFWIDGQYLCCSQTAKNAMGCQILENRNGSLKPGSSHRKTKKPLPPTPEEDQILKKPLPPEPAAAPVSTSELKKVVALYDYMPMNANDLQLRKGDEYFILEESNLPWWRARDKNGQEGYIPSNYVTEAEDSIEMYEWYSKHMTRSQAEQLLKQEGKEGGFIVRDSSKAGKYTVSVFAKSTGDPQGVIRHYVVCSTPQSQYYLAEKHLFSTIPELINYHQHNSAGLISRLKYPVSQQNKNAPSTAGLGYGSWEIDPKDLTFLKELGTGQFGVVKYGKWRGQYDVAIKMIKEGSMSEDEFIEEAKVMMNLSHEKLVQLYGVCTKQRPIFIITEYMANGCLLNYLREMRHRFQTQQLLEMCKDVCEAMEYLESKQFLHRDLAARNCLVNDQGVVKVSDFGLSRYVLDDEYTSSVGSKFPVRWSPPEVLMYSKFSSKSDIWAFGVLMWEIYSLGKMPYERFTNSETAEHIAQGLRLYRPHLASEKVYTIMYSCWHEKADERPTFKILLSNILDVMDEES

Compound | BTK degradation (%) 1 nM | BTK degradation (%) 10 nM | BTK degradation (%) 100 nM
Cc1cc(-c2ccnc(Nc3ccc(C4CCN(CC5CN(c6ccc7c(c6)C(=O)N(C6CCC(=O)NC6=O)C7=O)C5)CC4)cc3)n2)ccc1CNC(=O)c1cnn(C(C)C)c1 (centres unmarked) [Example 44, N-(4-(2-((4-(1-((1-(2-(2,6-dioxopiperidin-3-yl)-1,3-dioxoisoindolin-5-yl)azetidin-3-yl)methyl)piperidin-4-yl)phenyl)amino)pyrimidin-4-yl)-2-methylbenzyl)-1-isopropyl-1H-pyrazole-4-carboxamide] | 66.0% | 95.0% | 99.0%
Cc1cc(-c2ccnc(Nc3ccc(N4CCN(CC5CCN(c6ccc(N7CCC(=O)NC7=O)cc6)CC5)CC4)cc3)n2)ccc1CNC(=O)c1cn(C(C)(C)C)nn1 [Example 71, 1-(tert-butyl)-N-(4-(2-((4-(4-((1-(4-(2,4-dioxotetrahydropyrimidin-1 (2H)-yl)phenyl)piperidin-4-yl)methyl)piperazin-1-yl)phenyl)amino)pyrimidin-4-yl)-2-methylbenzyl)-1H-1,2,3-triazole-4-carboxamide] | 80.5% | 98.0% | 99.5%
Cc1cc(-c2ccnc(Nc3ccc4c(c3)CN(CC3CCN(c5ccc6c(c5)C(=O)N(C5CCC(=O)NC5=O)C6=O)CC3)CC4)n2)ccc1CNC(=O)N1CC(OC(C)C)C1 (centres unmarked) [Example 1, N-(4-(2-((2-((1-(2-(2,6-dioxopiperidin-3-yl)-1,3-dioxoisoindolin-5-yl)piperidin-4-yl)methyl)-1,2,3,4-tetrahydroisoquinolin-7-yl)amino)pyrimidin-4-yl)-2-methylbenzyl)-3-isopropoxyazetidine-1-carboxamide] |  | 92% | 97.5%
Cc1cc(-c2ccnc(Nc3cnn(C4CCN(CC5CCN(c6ccc7c(c6)C(=O)N(C6CCC(=O)NC6=O)C7=O)CC5)CC4)c3)n2)ccc1CNC(=O)N1CC(OC(C)C)C1 (centres unmarked) [Example 21, N-(4-(2-((1-(1-((1-(2-(2,6-dioxopiperidin-3-yl)-1,3-dioxoisoindolin-5-yl)piperidin-4-yl)methyl)piperidin-4-yl)-1H-pyrazol-4-yl)amino)pyrimidin-4-yl)-2-methylbenzyl)-3-isopropoxyazetidine-1-carboxamide] | 70% | 96.5% | 99%
Cc1cc(-c2ccnc(Nc3ccc(N4CCN(CC5CCN(c6cccc(N7CCC(=O)NC7=O)c6)CC5)CC4)cc3)n2)ccc1CNC(=O)c1cn(C(C)(C)C)nn1 [Example 70, 1-(tert-butyl)-N-(4-(2-((4-(4-((1-(3-(2,4-dioxotetrahydropyrimidin-1 (2H)-yl)phenyl)piperidin-4-yl)methyl)piperazin-1-yl)phenyl)amino)pyrimidin-4-yl)-2-methylbenzyl)-1H-1,2,3-triazole-4-carboxamide] | 67.0% | 97.5% | 99.5%
Cc1cc(-c2ccnc(Nc3ccc(N4CCN(CC5CCN(c6cccc(N7CCC(=O)NC7=O)c6)CC5)CC4)nc3)n2)ccc1CNC(=O)c1cn(C(C)(C)C)nn1 [Example 76] | 55.0% | 96.5% | 100.0%
Cc1cc(-c2ccnc(Nc3ccc(C4CCN(C5CCN(C(=O)c6cccc(NC7CCC(=O)NC7=O)c6)CC5)CC4)cc3)n2)ccc1CNC(=O)N1CC(OC(C)C)C1 (centres unmarked) [Example 104, N-(4-(2-((4-(1′-(3-((2,6-dioxopiperidin-3-yl)amino)benzoyl)-[1,4′-bipiperidin]-4-yl)phenyl)amino)pyrimidin-4-yl)-2-methylbenzyl)-3-isopropoxyazetidine-1-carboxamide] | −9.0% | 39.0% | 95.5%

Now from value to compound:

BTK degradation (%) 1 nM | BTK degradation (%) 10 nM | BTK degradation (%) 100 nM | Compound
18.5% | 91.5% | 99.5% | Cc1cc(-c2ccnc(Nc3ccc(N4CCC(CN5CCN(c6cccc(NC7CCC(=O)NC7=O)c6)CC5)CC4)cc3)n2)ccc1CNC(=O)N1CC(OC(C)C)C1 (centres unmarked) [Example 120, N-(4-(2-((4-(4-((4-(3-((2,6-dioxopiperidin-3-yl)amino)phenyl)piperazin-1-yl)methyl)piperidin-1-yl)phenyl)amino)pyrimidin-4-yl)-2-methylbenzyl)-3-isopropoxyazetidine-1-carboxamide]
62.0% | 97.5% | 99.0% | Cc1cc(-c2ccnc(Nc3ccc(N4CCN(CC5CCN(c6ccc(NC7CCC(=O)NC7=O)cn6)CC5)CC4)cc3)n2)ccc1CNC(=O)c1cnn(C(C)C)c1 (centres unmarked) [Example 58, N-(4-(2-((4-(4-((1-(5-((2,6-dioxopiperidin-3-yl)amino)pyridin-2-yl)piperidin-4-yl)methyl)piperazin-1-yl)phenyl)amino)pyrimidin-4-yl)-2-methylbenzyl)-1-isopropyl-1H-pyrazole-4-carboxamide]
22% | 90% | 97.5% | COc1ccc(C(=O)N2CCC(CN3CCN(c4ccc(Nc5nccc(-c6ccc(CNC(=O)N7CC(OC(C)C)C7)c(C)c6)n5)cc4)CC3)CC2)cc1N1CCC(=O)NC1=O [Example 86, N-(4-(2-((4-(4-((1-(3-(2,4-dioxotetrahydropyrimidin-1 (2H)-yl)-4-methoxybenzoyl)piperidin-4-yl)methyl)piperazin-1-yl)phenyl)amino)pyrimidin-4-yl)-2-methylbenzyl)-3-isopropoxyazetidine-1-carboxamide]
39.5% | 97.0% | 100.0% | Cc1cc(-c2ccnc(Nc3ccc(N4CC(CN5CCN(C(=O)c6cccc(NC7CCC(=O)NC7=O)c6)CC5)C4)cc3)n2)ccc1CNC(=O)N1CC(OC(C)C)C1 (centres unmarked) [Example 113, N-(4-(2-((4-(3-((4-(3-((2,6-dioxopiperidin-3-yl)amino)benzoyl)piperazin-1-yl)methyl)azetidin-1-yl)phenyl)amino)pyrimidin-4-yl)-2-methylbenzyl)-3-isopropoxyazetidine-1-carboxamide]
24.0% | 92.0% | 99.3% | Cc1cc(-c2ccnc(Nc3ccc(N4CCN(CC5CCN(c6ccc(NC7CCC(=O)NC7=O)cn6)CC5)CC4)cc3)n2)ccc1CNC(=O)N1CC(OC(C)C)C1 (centres unmarked) [Example 52, N-(4-(2-((4-(4-((1-(5-((2,6-dioxopiperidin-3-yl)amino)pyridin-2-yl)piperidin-4-yl)methyl)piperazin-1-yl)phenyl)amino)pyrimidin-4-yl)-2-methylbenzyl)-3-isopropoxyazetidine-1-carboxamide]
13.5% | 77.0% | 98.0% | Cc1cc(-c2ccnc(Nc3ccc(CN4CCN(CC5CCN(c6cccc(N7CCC(=O)NC7=O)c6)CC5)CC4)cc3)n2)ccc1CNC(=O)N1CC(OC(C)C)C1 [Example 67, N-(4-(2-((4-((4-((1-(3-(2,4-dioxotetrahydropyrimidin-1 (2H)-yl)phenyl)piperidin-4-yl)methyl)piperazin-1-yl)methyl)phenyl)amino)pyrimidin-4-yl)-2-methylbenzyl)-3-isopropoxyazetidine-1-carboxamide]
1% | 20% | 76% | Cc1c(NC(=O)N2CC(OC(C)C)C2)cc(F)cc1-c1ccnc(Nc2ccc(N3CCN(CC4CCN(CC(=O)Nc5cccc(NC6CCC(=O)NC6=O)c5)CC4)CC3)cc2)n1 (centres unmarked) [Example 106, N-(3-(2-((4-(4-((1-(2-((3-((2,6-dioxopiperidin-3-yl)amino)phenyl)amino)-2-oxoethyl)piperidin-4-yl)methyl)piperazin-1-yl)phenyl)amino)pyrimidin-4-yl)-5-fluoro-2-methylphenyl)-3-isopropoxyazetidine-1-carboxamide]
